Assay results as given in paper PMC8795197, “Safety and activity of WX-0593 (Iruplinalkib) in patients with ALK- or ROS1-rearranged advanced non-small cell lung cancer: a phase 1 dose-escalation and dose-expansion trial” (Signal Transduction and Targeted Therapy, 2022).

Columns and labels:
[1] = test system: advanced NSCLC patients with ALK or ROS1 rearrangement; assay: Phase 1 dose-escalation phase: antitumor activity (RECIST 1.1, investigators); assay type: in vivo, human
Procedure: The starting dose for WX-0593 was 30 mg, which was selected on the basis of preclinical toxicology studies (data unpublished), according to the International Conference on Harmonisation Guidance for Industry S9 Nonclinical Evaluation for Anticancer Pharmaceuticals.[30] Three patients were assigned to each dose level. In the dosing cohort of 30 mg, treatment included a single WX-0593 dose, followed by 7-day PK evaluation period, and subsequent daily oral dosing for continuous 21 days. In other dosing cohorts, WX-0593 was administered orally as a single dose in the 4-day PK run-in period, followed by dosing once per day in continuous 21-day cycles. The DLT observation period was the first cycle of WX-0593 treatment (the single-dose period and 21 days of multiple-dose period). Patients performed imaging evaluation at baseline, with computed tomography or magnetic resonance imaging of the chest, abdomen, pelvis, and brain. In the dose-escalation phase, the first efficacy evaluation was done after 3-week continuous administration of WX-0593 and every 6 weeks thereafter. […] If responses (CR or PR) were observed, repeat assessments were required to confirm the responses 4 weeks after the initial evaluation. […] AEs were assessed in all patients throughout this study and graded per the National Cancer Institute Common Terminology Criteria for Adverse Events version 4.03. In the dose-escalation phase, the primary endpoints were MTD, DLT, and safety assessed by investigators and the subsequent recommended dose of WX-0593. Safety parameters included TEAEs, SAEs, and TRAEs. The key secondary endpoints were PK parameters and preliminary antitumor activity of WX-0593. ORR was defined as the proportion of patients who had best overall response, including CR or PR. PFS was calculated from the date of the first dose of WX-0593 to the date of documented disease progression or death (whichever occurred first). DCR was defined as the proportion of patients who had best overall response, including CR, PR, or SD, with a duration of at least 12 weeks. TTP was calculated from the date when the first dose of WX-0593 was given to first documented disease progression. […] OS was calculated from the date when the first dose of WX-0593 was administered to the date of death from any cause. Safety analysis was performed in the SS, which was comprised of all patients treated with one dose of WX-0593 and with safety data recorded. Efficacy analysis was performed in the FAS, which was defined as all patients treated with at least one dose of WX-0593. The PK analysis set included all patients treated with at least one dose of WX-0593 and with at least one evaluable PK sample. […] Descriptive statistics were carried out to summarize patients’ baseline characteristics and safety. […] All time-to-event data (PFS, TTP, DOR, and OS) and their corresponding 95% CIs were estimated by Kaplan–Meier methods. PK parameter analyses were done with Phoenix WinNonlin version 8.0. All other statistical analyses were conducted using SAS version 9.4.

Ba/F3 (EML4-ALK-WT) = assay: Cell proliferation inhibition assay; assay type: cell-based
Ba/F3 = assay: Cell proliferation inhibition assay; assay type: cell-based
LU-01-0319R NSCLC PDX = assay: PDX model resistant to crizotinib; assay type: in vivo
[2] = Excretion and mass balance after [14C]WX-0593, bile-duct cannulation (BDC); assay type: in vivo; conditions: 0-72 hours, BDC rats
[3] = General pharmacology: cardiovascular system; assay type: in vivo, monkeys
Procedure: […]. Therefore, WX-0593 has a low risk of cardiotoxicity. There were no effects on the CNS and respiratory system in rats at doses of 3, 10, and 30 mg/kg. However, WX-0593 10 and 30 mg/kg may result in benign respiratory rate and decreases in minute ventilation in female rats. There were no effects on the cardiovascular system, blood pressure, ECG parameters or waveforms in monkeys at doses of 5, 10, and 25 mg/kg; 10 and 25 mg/kg may result in mild decreases in heart rate (within the normal range) and PR prolongation and QTc shortening associated with bradycardia within the normal range (no statistical difference when compared to the control arm). No cardiovascular system adverse reactions related to the test product were found. The human equivalent dose (using 60 kg) is 3636 mg/person in CNS, 3636 mg/person in male respiratory system and 363.6 mg/person in female respiratory system, and 607 mg/person in cardiovascular system.

in vivo = assay: in vivo; design: species or system nude mice; conditions: mouse
Procedure: The severely toxic dose in 10% of the animals (STD10) in rodents was > 30 mg/kg. At a dose of 10 mg/kg/day, AUC0-24h (Day 28) was 16800 h·ng/mL in males and 17300 h·ng/mL in females, which is 4.5 times and 4.7 times of the exposure at the effective dose in mice (2.5 mg/kg, AUC0-24h: 3700 h·ng/mL). At a dose of 30 mg/kg/day, AUC0-24h (Day 28) was 27100 h·ng/mL in males and 42400 h·ng/mL in females, which is 7.3 times and 11.5 times of the exposure at the effective dose in nude mice (2.5 mg/kg, AUC0-24h: 3700 h·ng/mL).

[4] = Single-dose toxicity study (acute toxicity)

COc1cc(N2CCC3(CCN(C)CC3)CC2)ccc1Nc1ncc(Cl)c(Nc2ccccc2P(C)(C)=O)n1 [WX-0593]
ORR (n/N, 95%CI) ([1]; ALK TKI naive, dose: 30, 60, 90, 120, 180, 240, 300 mg, 30 mg): 66.7% (2/3, 9.4-99.2%) | ORR (n/N, 95%CI) ([1]; ALK TKI naive, dose: 30, 60, 90, 120, 180, 240, 300 mg, 90 mg): 50.0% (1/2, 1.3-98.7%) | ORR (n/N, 95%CI) ([1]; ALK TKI naive, dose: 30, 60, 90, 120, 180, 240, 300 mg, 120 mg): 75.0% (6/8, 34.9-96.8%) | ORR (n/N, 95%CI) ([1]; ALK TKI naive, dose: 30, 60, 90, 120, 180, 240, 300 mg, 180 mg): 83.3% (5/6, 35.9-99.6%) | ORR (n/N, 95%CI) ([1]; ALK TKI naive, dose: 30, 60, 90, 120, 180, 240, 300 mg, 240 mg): 60.0% (3/5, 14.7-94.7%) | ORR (n/N, 95%CI) ([1]; ALK TKI naive, dose: 30, 60, 90, 120, 180, 240, 300 mg, 300 mg): 100.0% (1/1, 2.5-100.0%) | DCR ([1]; ALK-rearranged patients): 89.1% | ORR (n/N, 95%CI) ([1]; ALK-rearranged patients, total): 63.0% | ORR (n/N, 95%CI) ([1]; ALK-rearranged, ALK TKI naive, dose: 30, 60, 90, 120, 180, 240, 300 mg, 30 mg): 100% (2/2, 15.8-100%) | ORR (n/N, 95%CI) ([1]; ALK-rearranged, ALK TKI naive, dose: 30, 60, 90, 120, 180, 240, 300 mg, 60 mg): 66.7% (2/3, 9.4-99.2%) | ORR (n/N, 95%CI) ([1]; ALK-rearranged, ALK TKI naive, dose: 30, 60, 90, 120, 180, 240, 300 mg, 120 mg): 85.7% (6/7, 42.1-99.6%) | ORR (n/N, 95%CI) ([1]; ALK-rearranged, ALK TKI naive, dose: 30, 60, 90, 120, 180, 240, 300 mg, 180 mg): 75.0% (3/4, 19.4-99.4%) | ORR (n/N, 95%CI) ([1]; ALK-rearranged, ALK TKI naive, dose: 30, 60, 90, 120, 180, 240, 300 mg, 300 mg): 100% (1/1, 2.5-100%) | ORR (n/N, 95%CI) ([1]; ALK-rearranged, crizotinib and other ALK TKIs, dose: 30, 60, 90, 120, 180, 240, 300 mg, 120 mg): 100% (1/1, 2.5-100%) | ORR (n/N, 95%CI) ([1]; ALK-rearranged, crizotinib and other ALK TKIs, total): 100% (3/3, 29.2- 100%) | ORR (n/N, 95%CI) ([1]; ALK-rearranged, crizotinib only, total): 40.0% (8/20, 19.1-63.9%) | DCR ([1]; ROS1-rearranged patients): 80.0% | ORR (n/N, 95%CI) ([1]; ROS1-rearranged, crizotinib and other ALK TKIs, dose: 30, 60, 90, 120, 180, 240, 300 mg, 90 mg): 0% (0/1, 0-97.5%) | ORR (n/N, 95%CI) ([1]; ROS1-rearranged, crizotinib and other ALK TKIs, total): 0% (0/2, 0-84.2%) | ORR (n/N, 95%CI) ([1]; ROS1-rearranged, crizotinib only, dose: 30, 60, 90, 120, 180, 240, 300 mg, 90 mg): 0% (0/1, 0-97.5%) | ORR (n/N, 95%CI) ([1]; ROS1-rearranged, crizotinib only, total): 0% (0/3, 0-70.8%) | median PFS ([1]; ROS1 rearrangement, crizotinib-naive (n = 7)): 3.65 months | ORR (n/N, 95%CI) ([1]; baseline CNS metastasis, total): 9.1% (2/22, 1.1-29.2%) | ORR (n/N, 95%CI) ([1]; baseline measurable CNS metastasis, total): 33.3% (2/6,4.3-77.7%) | ORR (n/N, 95%CI) ([1]; prior crizotinib and other ALK TKI, dose: 30, 60, 90, 120, 180, 240, 300 mg, 120 mg): 100% (1/1, 2.5-100%) | ORR (n/N, 95%CI) ([1]; prior crizotinib and other ALK TKI, total): 100% (3/3, 29.2-100%) | DOR, median (95% CI) ([1]; total (n=54)): 10.87 (10.87, NR) mo | PFS, median (95% CI) ([1]; total (n=54)): 11.89 (5.03, 11.89) mo | TTP, median (95% CI) ([1]; total (n=54)): 11.89 (6.44, 11.89) mo | growth inhibition (Ba/F3 (EML4-ALK-WT)): significantly inhibits the growth | IC50 relative to ALK-related cells (Ba/F3): significantly higher | anti-tumor effect (LU-01-0319R NSCLC PDX; WX-0593 2.5, 5, 10 mg/kg, ceritinib 10/20 mg/kg, brigatinib 10 mg/kg): significant anti-tumor effects | body weight (LU-01-0319R NSCLC PDX; all treatment arms): no significant decrease in weight | dose excreted in bile [2]: 30.56% | dose excreted in feces [2]: 32.04% | dose excreted in urine [2]: 30.73% | dose in cage rinses and washes [2]: 1.43% | mean radioactivity recovery rate [2]: 94.75% | effects on cardiovascular system, blood pressure, ECG parameters or waveforms ([3]; 5, 10 and 25 mg/kg): no effects | human equivalent dose, cardiovascular system ([3]; using 60 kg): 607 mg/person | murine effective dose (in vivo): 2.5 mg/kg | AUC(0-t) (in vivo; nude, 2.5 mg/kg): 3700 ng·h/mL | mutagenic activity (Mutagenicity study): no mutagenic activity | MTD as multiple of the effective dose ([4]; female animals): 10 times | MTD as multiple of the effective dose ([4]; males): 40 times
